According to patent US20090069373A1, “Quinoline Acids” (Wyeth, priority 2007, published 2009):
pEC50, pIC50: −log10 of the molar value.

Assays:
[1] = target: T1, human LXRβ (Homo sapiens, UniProt P55055); assay: Ligand-binding test procedure for human LXRβ (3H T0901317 competition, flash plates); settings: for Binding ratio a/b: IC50 (μM) LXRα binding/IC50 (μM) LXRβ binding; for pIC50: biotinylated hLXRβ, tracer 3H T0901317
T1 construct: biotin (biotinylated; biotinylation tag not described); made in house; host or cells: E. coli
T1 sequence (P55055 1-460): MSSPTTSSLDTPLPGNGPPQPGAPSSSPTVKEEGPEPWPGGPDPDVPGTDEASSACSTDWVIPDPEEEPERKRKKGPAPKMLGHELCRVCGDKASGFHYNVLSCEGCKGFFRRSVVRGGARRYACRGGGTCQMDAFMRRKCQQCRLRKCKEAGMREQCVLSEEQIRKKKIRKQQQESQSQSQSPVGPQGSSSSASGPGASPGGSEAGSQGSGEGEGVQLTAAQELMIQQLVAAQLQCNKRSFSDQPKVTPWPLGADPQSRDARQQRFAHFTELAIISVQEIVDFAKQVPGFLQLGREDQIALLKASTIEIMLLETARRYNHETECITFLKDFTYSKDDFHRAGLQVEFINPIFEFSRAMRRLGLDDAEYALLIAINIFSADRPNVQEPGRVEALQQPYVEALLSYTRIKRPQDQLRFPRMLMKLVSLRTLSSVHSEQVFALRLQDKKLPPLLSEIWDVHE

[2] = target: T2, human LXRα (Homo sapiens, UniProt Q13133); assay: Ligand-binding test procedure for human LXRα (3H T0901317 competition, flash plates); settings: biotinylated hLXRα, tracer 3H T0901317
T2 construct: biotin (biotinylated; biotinylation tag not described); made in house; host or cells: E. coli
T2 sequence (Q13133 1-447): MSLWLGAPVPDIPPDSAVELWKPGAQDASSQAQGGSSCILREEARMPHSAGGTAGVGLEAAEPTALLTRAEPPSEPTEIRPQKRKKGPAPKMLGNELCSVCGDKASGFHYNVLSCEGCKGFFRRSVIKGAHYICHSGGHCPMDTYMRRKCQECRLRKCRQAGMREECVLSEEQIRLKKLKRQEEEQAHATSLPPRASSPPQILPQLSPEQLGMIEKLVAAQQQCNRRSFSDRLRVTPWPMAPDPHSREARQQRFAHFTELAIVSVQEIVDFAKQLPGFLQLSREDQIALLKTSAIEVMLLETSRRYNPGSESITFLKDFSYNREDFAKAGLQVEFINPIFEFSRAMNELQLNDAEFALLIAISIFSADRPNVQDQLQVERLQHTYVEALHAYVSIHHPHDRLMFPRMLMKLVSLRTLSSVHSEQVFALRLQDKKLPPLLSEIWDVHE
Procedure, shortened: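 Competition binding of test ligands against 5 nM ³H tracer solution (pre-mix concentration) on biotinylated hLXRα from E. coli extract, captured on streptavidin flash plates (Bmax ~4000 cpm). Ligand dilution series made in DMSO. Incubated overnight at +4 °C; bound radioactivity counted after washing.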

[3] = tested on: ABCA1 gene; assay: Quantitative analysis of ABCA1 gene regulation in THP-1 cells (real-time RT-PCR); type: cell-based, human; settings: differentiated THP-1 cells, ABCA1 mRNA, 18 hrs; for pEC50: Homo sapiens; for THP cells ABCA1 Ag. (%): LXR agonist reference at 1.0 uM as positive control
Method: Quantitative Analysis of ABCA1 Gene Regulation in THP-1 Cells. […] Materials and Methods Cell culture: The THP-1 monocytic cell line (ATCC # TIB-202) was obtained from American Type Culture Collection (Manassas, Va.) and cultured in RPMI 1640 medium (Gibco, Carlsbad, Calif.) containing 10% FBS, 2 mM L-glutamine, and 55 uM beta-Mercaptoethanol (BME). […] Louis, Mo.) for three days to induce differentiation into adherent macrophages. Differentiated THP-1 cells were treated with test compounds or ligands dissolved in DMSO (Sigma, D-8779) in culture medium lacking phorbal ester. […] L., J. Med. Chem. (2000), 45:1963-1966.). Results of antagonist analysis are expressed as % antagonism and IC50 (in μM).

SMILES	Binding ratio a/b [1]	pIC50 [1]	pIC50 [2]	pEC50 [3]	THP cells ABCA1 Ag. (%) [3] [%]
O=C(O)Cc1cccc2c(NCc3cccc(-c4ccnc5c(C(F)(F)F)cccc45)c3)cccc12 [Example 1, [5-({3-[8-(Trifluoromethyl)quinolin-4-yl]benzyl}amino)-1-naphthyl]acetic acid]	48	7.82	6.13	5.42	91.15
Cc1cnc2c(C(F)(F)F)cccc2c1-c1cccc(COc2cccc3c(CC(=O)O)cccc23)c1 [Example 9]	22	7.89	6.53	5.95	122.6
Cc1cnc2c(C(F)(F)F)cccc2c1-c1cccc(CNc2cccc3c(CC(=O)O)cccc23)c1 [Example 13, [5-({3-[3-methyl-8-(trifluoromethyl)quinolin-4-yl]benzyl}amino)-1-naphthyl]acetic acid]	22	8.00	6.68	5.58	107.8
O=C(O)Cc1cccc2c(OCc3cccc(-c4ccnc5c(C(F)(F)F)cccc45)c3)cccc12 [Example 5, [5-({3-[8-(Trifluoromethyl)quinolin-4-yl]benzyl}oxy)-1-naphthyl]acetic acid]	30	7.59	6.11	5.47	69.4
Cc1cnc2c(C(F)(F)F)cccc2c1-c1cccc(CNc2cccc(F)c2C(=O)O)c1 [Example 115, 2-fluoro-6-({3-[3-methyl-8-(trifluoromethyl)quinolin-4-yl]benzyl}amino)benzoic acid]	1	4.99	4.97	–	–
O=C(O)c1ccc2cc(NCc3cccc(-c4ccnc5c(C(F)(F)F)cccc45)c3)ccc2c1 [Example 46, 6-({3-[8-(trifluoromethyl)quinolin-4-yl]benzyl}amino)-2-naphthoic acid]	6	5.88	5.10	–	–
O=C(O)c1ccc(Cn2ccc3c(-c4c(Cc5ccccc5)cnc5c(C(F)(F)F)cccc45)cccc32)cc1 [Example 127, 4-({4-[3-Benzyl-8-(trifluoromethyl)quinolin-4-yl]-1H-indol-1-yl}methyl)benzoic acid]	1	5.61	5.67	–	–

Second part, led by results:

Binding ratio a/b [1]	pIC50 [1]	pIC50 [2]	pEC50 [3]	SMILES	THP cells ABCA1 Ag. (%) [3] [%]
32	7.52	6.02	5.32	O=C(O)Cc1cccc2c(NCc3cncc(-c4c(Cc5ccccc5)cnc5c(C(F)(F)F)cccc45)c3)cccc12 [Example 3, {5-[({5-[3-Benzyl-8-(trifluoromethyl)quinolin-4-yl]pyridin-3-yl}methyl)amino]-1-naphthyl}acetic acid]	69.1
2	6.74	6.45	–	O=C(O)c1ccc(NCc2cccc(-c3c(Cc4ccccc4)cnc4c(C(F)(F)F)cccc34)c2)cc1 [Example 101, 4-({3-[3-benzyl-8-(trifluoromethyl)quinolin-4-yl]benzyl}amino)benzoic acid]	–
6	7.18	6.41	–	O=C(O)c1c(NCc2cccc(-c3c(Cc4ccccc4)cnc4c(C(F)(F)F)cccc34)c2)cccc1C(F)(F)F [Example 49, 2-({3-[3-benzyl-8-(trifluoromethyl)quinolin-4-yl]benzyl}amino)-6-(trifluoromethyl)benzoic acid]	–
2	7.28	6.99	–	O=C(O)c1ccc(COc2cccc(-c3c(Cc4ccccc4)cnc4c(C(F)(F)F)cccc34)c2)cc1 [Example 100, 4-({3-[3-benzyl-8-(trifluoromethyl)quinolin-4-yl]phenoxy}methyl)benzoic acid]	–
1	6.33	6.29	–	O=C(O)c1cc(F)ccc1NCc1cccc(-c2c(Cc3ccccc3)cnc3c(C(F)(F)F)cccc23)c1 [Example 112, 2-({3-[3-benzyl-8-(trifluoromethyl)quinolin-4-yl]benzyl}amino)-5-fluorobenzoic acid]	–
1	5.67	5.49	–	O=C(O)c1cc(F)ccc1OCc1cccc(-c2c(Cc3ccccc3)cnc3c(C(F)(F)F)cccc23)c1 [Example 104, 2-({3-[3-benzyl-8-(trifluoromethyl)quinolin-4-yl]benzyl}oxy)-5-fluorobenzoic acid]	–
7	8.10	7.29	–	O=C(O)CC1CCc2c(OCc3cccc(-c4c(Cc5ccccc5)cnc5c(C(F)(F)F)cccc45)c3)cccc21 (stereo not shown) [Example 38, [4-({3-[3-benzyl-8-(trifluoromethyl)quinolin-4-yl]benzyl}oxy)-2,3-dihydro-1H-inden-1-yl]acetic acid]	–
